Read-outs that look alike come from different tables or passages of the source.
Columns and labels:
renal tubules [1] = test: 28-day repeat dose study of known nephrotoxicants, kidney histopathology on day 5 and day 28; type: in vivo, rat; conditions: for evidence of tubular injury / incidence of interstitial inflammation / proteinaceous casts, tubular cysts and mineralization, animals affected: day 28, kidney histopathology; for incidence of interstitial inflammation / proteinaceous casts, tubular cysts and mineralization, animals affected: n=10
Method: 28-day repeat dose studies were conducted on known nephrotoxicants. Doses were chosen that would not cause histological or clinical evidence of renal tubular injury after 5 days of dosing, but would cause histological evidence of tubular injury after 28 days of dosing. Animals were assigned to groups such that mean body weights were within 10% of the mean vehicle control group. Test compounds were administered either orally (10 ml of corn oil/kg body weight) or by intra-peritoneal injection (5 ml of saline/kg body weight). Animals were dosed once daily starting on day 0, and necropsied 24 hrs after the last dose following an overnight fast on day 5 (n=5) and day 28 (n=10). An equivalent number of time- and vehicle-matched control rats were treated concurrently.
To derive a signature predictive of renal tubular injury, it is necessary to first define both nephrotoxic and non-nephrotoxic treatments from short-term studies devoid of tissue injury that can be used to model the early transcriptional effects that will be predictive of late-onset toxicity.
Doses were chosen that would not cause histological or clinical evidence of renal tubular injury after 5 days of dosing, but would cause histological evidence of tubular injury after 28 days of dosing.
Male Sprague-Dawley (Crl:CD®(SD)(IGS)BR) rats (Charles River Laboratories, Portage, Mich.), weight matched, 7 to 8 weeks of age, were housed individually in hanging, stainless steel, wire-bottom cages in a temperature (66-77° F.), light (12-hour dark/light cycle) and humidity (30-70%) controlled room. […] Housing and treatment of the animals were in accordance with regulations outlined in the USDA Animal Welfare Act (9 CFR Parts 1, 2 and 3).
All animals were monitored daily for clinical observations approximately 1 hr after dosing. […] Paired organs were weighed together. Body weights were recorded pre-test and daily thereafter for reference database (i.e., DrugMatrix™) studies, and on days 0, 3, 5, 7, 14 and 28 for the sub-chronic studies. Terminal body weights were measured at necropsy and used to calculate relative organ weights and percent body weight gain relative to day 0.
The right kidney was preserved in 10% buffered formalin for tissue fixation and subsequently embedded in paraffin, sectioned and stained with hematoxylin and eosin. Sections (5 μm thick) were examined under light microscope by Board Certified Pathologists for histopathological lesions. The left kidney was snap frozen in liquid nitrogen for subsequent RNA extraction.

renal tubules [2] = conditions: rats, daily dose, route and vehicle of Table 2, day 5/7; absence of nephrotoxicity asserted from PDR and published literature; no histological injury on day 5/7; cited from earlier work
[3] = male Sprague-Dawley rats, daily dose, route and vehicle of Table 2, late-onset renal tubular injury empirically confirmed after 28 days of dosing, expression profile day 5
[4] = after 4 weeks of dosing, kidney histopathology
[5] = day 5, kidney histopathology, n=5

Molecule | Class (nephrotoxic / non-nephrotoxic training label) (renal tubules [1]; [3]) | Class (nephrotoxic / non-nephrotoxic training label) (renal tubules [2]) | other results
CCCCCCCCCc1ccc(O)cc1 [4-NONYLPHENOL] | – | – | evidence of tubular injury (renal tubules [1]): clear evidence of tubular injury; incidence of interstitial inflammation (renal tubules [1]): 6 rats; proteinaceous casts, tubular cysts and mineralization, animals affected (renal tubules [1]): one; Class (nephrotoxic / non-nephrotoxic training label) (renal tubules [1]; rat, in vivo): Nephrotoxic
NCC[C@H](O)C(=O)N[C@@H]1C[C@H](N)[C@@H](O[C@H]2O[C@H](CN)[C@@H](O)[C@H](O)[C@H]2O)[C@H](O)[C@H]1O[C@H]1O[C@H](CO)[C@@H](O)[C@H](N)[C@H]1O [AMIKACIN] | Nephrotoxic | – | –
[Cl][Cd][Cl] [CADMIUM CHLORIDE] | Nephrotoxic | – | –
N.N.O=C([O-])C1(C(=O)[O-])CCC1.[Pt+2] [CARBOPLATIN] | Nephrotoxic | – | incidence of karyomegaly (renal tubules [1]; [4]): high incidence; incidence of karyomegaly (renal tubules [1]; [5]): 5 rats
N.N.[Cl][Pt][Cl] [CISPLATIN] | – | – | incidence of karyomegaly (renal tubules [1]; [4]): high incidence; incidence of karyomegaly (renal tubules [1]; [5]): 3 rats
[Cl-].[Cl-].[Co+2] [COBALT (II) CHLORIDE] | Nephrotoxic | – | incidence of karyomegaly (renal tubules [1]; [4]): high incidence
COc1cccc2c1C(=O)c1c(O)c3c(c(O)c1C2=O)C[C@@](O)(C(C)=O)C[C@@H]3O[C@H]1C[C@H](N)[C@H](O)[C@H](C)O1 [DAUNORUBICIN] | Nephrotoxic | – | –
COc1cccc2c1C(=O)c1c(O)c3c(c(O)c1C2=O)C[C@@](O)(C(=O)CO)C[C@@H]3O[C@H]1C[C@H](N)[C@H](O)[C@H](C)O1 [DOXORUBICIN] | Nephrotoxic | – | –
CC(=O)[C@]1(O)Cc2c(O)c3c(c(O)c2[C@@H](O[C@H]2C[C@H](N)[C@H](O)[C@H](C)O2)C1)C(=O)c1ccccc1C3=O [IDARUBICIN] | Nephrotoxic | – | –
CC(=O)[O-].CC(=O)[O-].[Pb+2] [LEAD (II) ACETATE] | Nephrotoxic | – | incidence of karyomegaly (renal tubules [1]; [4]): high incidence; mild tubular dilation and proteinaceous casts, animals affected (renal tubules [1]; day 5, kidney histopathology): one
CCN[C@@H]1C[C@H](N)[C@@H](O[C@H]2OC(CN)=CC[C@H]2N)[C@H](O)[C@H]1O[C@H]1OC[C@](C)(O)[C@H](NC)[C@H]1O [NETILMICIN] | Nephrotoxic | – | –
CO[C@H]1C[C@@H]2CC[C@@H](C)[C@@](O)(O2)C(=O)C(=O)N2CCCC[C@H]2C(=O)O[C@H]([C@H](C)C[C@@H]2CC[C@@H](O)[C@H](OC)C2)CC(=O)[C@H](C)/C=C(\C)[C@@H](O)[C@@H](OC)C(=O)[C@H](C)C[C@H](C)/C=C/C=C/C=C/1C [RAPAMYCIN] | – | Non-nephrotoxic | –
CO[C@H]1/C=C/O[C@@]2(C)Oc3c(C)c(O)c4c(c3C2=O)C2=NC3(CCN(CC(C)C)CC3)NC2=C(NC(=O)/C(C)=C\C=C\[C@H](C)[C@H](O)[C@@H](C)[C@@H](O)[C@@H](C)[C@H](OC(C)=O)[C@@H]1C)C4=O [RIFABUTIN] | – | Non-nephrotoxic | –
O=[N+]([O-])c1cc([As](=O)(O)O)ccc1O [ROXARSONE] | Nephrotoxic | – | evidence of tubular injury (renal tubules [1]): clear evidence of tubular injury; incidence of interstitial inflammation (renal tubules [1]): 6 rats; proteinaceous casts, tubular cysts and mineralization, animals affected (renal tubules [1]): one
O=C1C(CC[S+]([O-])c2ccccc2)C(=O)N(c2ccccc2)N1c1ccccc1 (stereo not drawn) [SULFINPYRAZONE] | – | Non-nephrotoxic | –
NC(=O)N1C(=O)/C(=C(\O)c2cccs2)c2cc(Cl)ccc21 [TENIDAP] | – | Non-nephrotoxic | –
CS(=O)(=O)c1ccc([C@@H](O)[C@@H](CO)NC(=O)C(Cl)Cl)cc1 [THIAMPHENICOL] | – | Non-nephrotoxic | –
NC[C@H]1O[C@H](O[C@H]2[C@H](O)[C@@H](O[C@H]3O[C@H](CO)[C@@H](O)[C@H](N)[C@H]3O)[C@H](N)C[C@@H]2N)[C@H](N)C[C@@H]1O [TOBRAMYCIN] | Nephrotoxic | – | –
N.N.[Cl][Pt+2][Cl] [TRANSPLATIN] | – | Non-nephrotoxic | –
CC(C)[C@H](N)C(=O)OCCOCn1cnc2c(=O)[nH]c(N)nc21 [VALACYCLOVIR] | – | Non-nephrotoxic | –
CCCC(CCC)C(=O)O [VALPROIC ACID] | – | Non-nephrotoxic | –
CC(c1cc2ccccc2s1)N(O)C(N)=O (stereo not drawn) [ZILEUTON] | – | Non-nephrotoxic | –
Cc1cc(CC(=O)O)n(C)c1C(=O)c1ccc(Cl)cc1 [ZOMEPIRAC] | – | Non-nephrotoxic | –
GENTAMICIN | Nephrotoxic | – | –

— patent US7588892B2, “Reagent sets and gene signatures for renal tubule injury” (Entelos, Inc., priority 2004, dated 2009)
